Like-named read-outs stand apart in the source and are kept apart here. Square brackets hold non-standard residues; d marks the D form. Ends that are not written are not given here. Peptide text beside a SMILES is read from it. * marks the point of attachment. hSer(lactone) = O=C1OCC[C@@H]1N*; hSer = N[C@@H](CCO)C(=O)O
Tests used:
[1] = tested on: A. calcoaceticus AC2
Description: (§1) In the present case, the antimicrobial activities of MBI-11B7CN, MBI-11B7HSL (homoserine lactone form) and MBI-11B7HS (homoserine form) were tested against various gram-negative and gram-positive strains, including antibiotic resistant strains. The assay was performed as described in “Methods for Dilution Antimicrobial Susceptibility Tests for Bacteria That Grow Aerobically-Fourth Edition; Approved Standard” NCCLS document M7-A4 (ISBN 1-56238-309-4) Vol. 17, No. 2 (1977).
(§2) The antimicrobial activities of the chemically synthesized MBI-11B7CN peptide and recombinant DNA synthesized MBI-11B7HSL (homoserine lactone form) and MBI-11B7HS (homoserine form) peptides were tested against various gram-negative and positive strains of bacteria, including antibiotic resistant strains. The Agarose Dilution Assay was performed as described in “Methods for Dilution Antimicrobial Susceptibility Tests for Bacteria That Grow Aerobically-Fourth Edition; Approved Standard” NCCLS document M7-A4 (ISBN 1-56238-309-4) Vol. 17, No 2 (1977).
(§3) The agarose dilution assay measures antimicrobial activity of peptides and peptide analogues, which is expressed as the minimum inhibitory concentration (MIC) of the peptides.
(§4) In order to mimic in vivo conditions, calcium and magnesium supplemented Mueller Hinton broth is used in combination with a low EEO agarose as the bacterial growth medium. Agarose, rather than agar, is used as the charged groups in agar prevent peptide diffusion through the media. The medium is autoclaved and then cooled to 50° C.-55° C. in a water bath before aseptic addition of anti-microbial solutions. The same volume of different concentrations of peptide solution are added to the cooled molten agarose, which is then poured to a depth of 3-4 mm.
(§5) The bacterial inoculum is adjusted to a 0.5 McFarland turbidity standard (PML Microbiological) and then diluted 1:10 before application on to the agarose plate. The final inoculum applied to the agarose is approximately 10^4 CFU in a 5-8 mm diameter spot. The agarose plates are incubated at 35° C.-37° C. for 16 to 20 hours.

[2] = tested on: S. epidermidis SE10
Description: as §1, §2, §3, §4, §5

[3] = tested on: K. pneumoniae KP1
Description: as §1, §2, §3, §4, §5

[4] = tested on: S. marcescens SMS3
Description: as §1, §2, §3, §4, §5

[5] = tested on: E. faecalis EFS1
Description: as §1, §2, §3, §4, §5

[6] = tested on: E. faecalis EFS8
Description: as §1, §2, §3, §4, §5

[7] = tested on: S. aureus SA14
Description: as §1, §2, §3, §4, §5

[8] = tested on: S. maltophilia SMA2
Description: as §1, §2, §3, §4, §5

[9] = tested on: E. cloacae ECL7
Description: as §1, §2, §3, §4, §5

[10] = tested on: P. aeruginosa PA4
Description: as §1, §2, §3, §4, §5

[11] = tested on: S. aureus SA93
Description: as §1, §2, §3, §4, §5

[12] = tested on: E. coli ECO5
Description: as §1, §2, §3, §4, §5

[13] = A. calcoaceticus, organism # AC2, source ATCC, agarose dilution
[14] = S. epidermidis, organism # SE10, source Chow, agarose dilution
[15] = K. pneumoniae, organism # KP1, source ATCC, agarose dilution
[16] = S. marcescens, organism # SMS3, source ATCC, agarose dilution
[17] = E. faecalis, organism # EFS1, source ATCC, agarose dilution
[18] = E. faecalis, organism # EFS8, source ATCC, agarose dilution
[19] = S. aureus, organism # SA14, source Bayer, agarose dilution
[20] = S. maltophilia, organism # SMA2, source ATCC, agarose dilution
[21] = E. cloacae, organism # ECL7, source ATCC, agarose dilution
[22] = P. aeruginosa, organism # PA4, source ATCC, agarose dilution
[23] = S. aureus, organism # SA93, source Bayer, agarose dilution
[24] = E. coli, organism # ECO5, source ATCC, agarose dilution

| Molecule | MIC [1, 13] | MIC [2, 14] | MIC [3, 15] | MIC [4, 16] | MIC [5, 17] | MIC [6, 18] | MIC [7, 19] | MIC [8, 20] | MIC [9, 21] | MIC [10, 22] | MIC [11, 23] | MIC [12, 24] | other results |
| --- | --- | --- | --- | --- | --- | --- | --- | --- | --- | --- | --- | --- | --- |
| CC[C@H](C)[C@H](N)C(=O)N[C@@H](CC(C)C)C(=O)N[C@@H](CCCNC(=N)N)C(=O)N[C@@H](Cc1c[nH]c2ccccc12)C(=O)N1CCC[C@H]1C(=O)N[C@@H](Cc1c[nH]c2ccccc12)C(=O)N[C@@H](Cc1c[nH]c2ccccc12)C(=O)N1CCC[C@H]1C(=O)N[C@@H](Cc1c[nH]c2ccccc12)C(=O)N[C@@H](CCCNC(=N)N)C(=O)N[C@@H](CCCNC(=N)N)C(=O)N[C@@H](CCCCN)C(=O)N[C@H]1CCOC1=O [11B7HSL] (H-ILRWPWWPWRRK-{hSer(lactone)}; N-terminus assumed) | 4 µg/mL | 4 µg/mL | 8 µg/mL | >64 µg/mL | 1 µg/mL | 16 µg/mL | 1 µg/mL | 32 µg/mL | >64 µg/mL | >64 µg/mL | 1 µg/mL | 8 µg/mL | – |
| CC[C@H](C)[C@H](N)C(=O)N[C@@H](CC(C)C)C(=O)N[C@@H](CCCNC(=N)N)C(=O)N[C@@H](Cc1c[nH]c2ccccc12)C(=O)N1CCC[C@H]1C(=O)N[C@@H](Cc1c[nH]c2ccccc12)C(=O)N[C@@H](Cc1c[nH]c2ccccc12)C(=O)N1CCC[C@H]1C(=O)N[C@@H](Cc1c[nH]c2ccccc12)C(=O)N[C@@H](CCCNC(=N)N)C(=O)N[C@@H](CCCNC(=N)N)C(=O)N[C@@H](CCCCN)C(=O)N[C@@H](CCO)C(=O)O [11B7HS] (H-ILRWPWWPWRRK[hSer]-OH; N-terminus assumed) | – | – | – | – | – | – | – | – | – | – | – | – | MIC [1]: 2 µg/mL; MIC ([2]; SE10): 8 µg/mL; MIC ([3]; KP1): 32 µg/mL; MIC ([4]; SMS3): >64 µg/mL; MIC ([5]; EFS1): 2 µg/mL; MIC ([6]; EFS8): 32 µg/mL; MIC ([7]; SA14): 2 µg/mL; MIC ([8]; SMA2): 64 µg/mL; MIC ([9]; ECL7): >64 µg/mL; MIC ([10]; PA4): >64 µg/mL; MIC ([11]; SA93): 1 µg/mL; MIC ([12]; ECO5): 32 µg/mL |
| ILRWPWWPWRRK-NH2 [11B7CN] | 2 µg/mL | 2 µg/mL | 8 µg/mL | >64 µg/mL | 2 µg/mL | 16 µg/mL | 4 µg/mL | 32 µg/mL | >64 µg/mL | >64 µg/mL | 1 µg/mL | 8 µg/mL | – |

— US20050260715A1, “Efficient methods for producing antimicrobial cationic peptides in host cells” (priority 1998, published 2005)
